Legend:
[1] = Displacement of [3H] batrachotoxinin from rat sodium channel site 2 measured after 60 mins by scintillation counter method
[2] = biological target: D(1A) dopamine receptor (Homo sapiens) (UniProt P21728); experiment: Displacement of [3H]SCH23390 from human recombinant D1 receptor at 10 uM measured after 60 mins by scintillation counter method relative to control
[3] = biological target: Adenosine receptor A3 (Homo sapiens) (UniProt P0DMS8); experiment: Displacement of [125I] AB-MECA from human recombinant A3 receptor at 10 uM measured after 120 mins by scintillation counter method relative to control
[4] = species on record: Rattus norvegicus; experiment: Displacement of [3H] TBPS from rat GABA gated chloride channel at 10 uM measured after 120 mins by scintillation counter method relative to control
[5] = biological target: Mu-type opioid receptor (Homo sapiens) (UniProt P35372); experiment: Displacement of [3H] DAMGO from human recombinant mu opioid receptor at 10 uM measured after 120 mins by scintillation counter method relative to control
[6] = biological target: Muscarinic acetylcholine receptor M2 (Homo sapiens) (UniProt P08172); experiment: Displacement of [3H]AF-DX 384 from human recombinant muscarinic 2 receptor at 10 uM measured after 60 mins by scintillation counter method relative to control
[7] = biological target: 5-hydroxytryptamine receptor 2B (Homo sapiens, UniProt P41595); experiment: Displacement of [125I](+/-)DOI from human recombinant 5-HT2B receptor at 10 uM measured after 60 mins by scintillation counter method relative to control
[8] = biological target: Cav1.2 (L-type calcium channel subunit alpha-1C) (Rattus norvegicus, UniProt P22002); experiment: Displacement of [3H] D888 from rat Cav1.2 (L-type) at 10 uM measured after 120 mins by scintillation counter method relative to control; conditions: probe [3H] D888
Sequence of Cav1.2 (L-type calcium channel subunit alpha-1C) (P22002 whole entry): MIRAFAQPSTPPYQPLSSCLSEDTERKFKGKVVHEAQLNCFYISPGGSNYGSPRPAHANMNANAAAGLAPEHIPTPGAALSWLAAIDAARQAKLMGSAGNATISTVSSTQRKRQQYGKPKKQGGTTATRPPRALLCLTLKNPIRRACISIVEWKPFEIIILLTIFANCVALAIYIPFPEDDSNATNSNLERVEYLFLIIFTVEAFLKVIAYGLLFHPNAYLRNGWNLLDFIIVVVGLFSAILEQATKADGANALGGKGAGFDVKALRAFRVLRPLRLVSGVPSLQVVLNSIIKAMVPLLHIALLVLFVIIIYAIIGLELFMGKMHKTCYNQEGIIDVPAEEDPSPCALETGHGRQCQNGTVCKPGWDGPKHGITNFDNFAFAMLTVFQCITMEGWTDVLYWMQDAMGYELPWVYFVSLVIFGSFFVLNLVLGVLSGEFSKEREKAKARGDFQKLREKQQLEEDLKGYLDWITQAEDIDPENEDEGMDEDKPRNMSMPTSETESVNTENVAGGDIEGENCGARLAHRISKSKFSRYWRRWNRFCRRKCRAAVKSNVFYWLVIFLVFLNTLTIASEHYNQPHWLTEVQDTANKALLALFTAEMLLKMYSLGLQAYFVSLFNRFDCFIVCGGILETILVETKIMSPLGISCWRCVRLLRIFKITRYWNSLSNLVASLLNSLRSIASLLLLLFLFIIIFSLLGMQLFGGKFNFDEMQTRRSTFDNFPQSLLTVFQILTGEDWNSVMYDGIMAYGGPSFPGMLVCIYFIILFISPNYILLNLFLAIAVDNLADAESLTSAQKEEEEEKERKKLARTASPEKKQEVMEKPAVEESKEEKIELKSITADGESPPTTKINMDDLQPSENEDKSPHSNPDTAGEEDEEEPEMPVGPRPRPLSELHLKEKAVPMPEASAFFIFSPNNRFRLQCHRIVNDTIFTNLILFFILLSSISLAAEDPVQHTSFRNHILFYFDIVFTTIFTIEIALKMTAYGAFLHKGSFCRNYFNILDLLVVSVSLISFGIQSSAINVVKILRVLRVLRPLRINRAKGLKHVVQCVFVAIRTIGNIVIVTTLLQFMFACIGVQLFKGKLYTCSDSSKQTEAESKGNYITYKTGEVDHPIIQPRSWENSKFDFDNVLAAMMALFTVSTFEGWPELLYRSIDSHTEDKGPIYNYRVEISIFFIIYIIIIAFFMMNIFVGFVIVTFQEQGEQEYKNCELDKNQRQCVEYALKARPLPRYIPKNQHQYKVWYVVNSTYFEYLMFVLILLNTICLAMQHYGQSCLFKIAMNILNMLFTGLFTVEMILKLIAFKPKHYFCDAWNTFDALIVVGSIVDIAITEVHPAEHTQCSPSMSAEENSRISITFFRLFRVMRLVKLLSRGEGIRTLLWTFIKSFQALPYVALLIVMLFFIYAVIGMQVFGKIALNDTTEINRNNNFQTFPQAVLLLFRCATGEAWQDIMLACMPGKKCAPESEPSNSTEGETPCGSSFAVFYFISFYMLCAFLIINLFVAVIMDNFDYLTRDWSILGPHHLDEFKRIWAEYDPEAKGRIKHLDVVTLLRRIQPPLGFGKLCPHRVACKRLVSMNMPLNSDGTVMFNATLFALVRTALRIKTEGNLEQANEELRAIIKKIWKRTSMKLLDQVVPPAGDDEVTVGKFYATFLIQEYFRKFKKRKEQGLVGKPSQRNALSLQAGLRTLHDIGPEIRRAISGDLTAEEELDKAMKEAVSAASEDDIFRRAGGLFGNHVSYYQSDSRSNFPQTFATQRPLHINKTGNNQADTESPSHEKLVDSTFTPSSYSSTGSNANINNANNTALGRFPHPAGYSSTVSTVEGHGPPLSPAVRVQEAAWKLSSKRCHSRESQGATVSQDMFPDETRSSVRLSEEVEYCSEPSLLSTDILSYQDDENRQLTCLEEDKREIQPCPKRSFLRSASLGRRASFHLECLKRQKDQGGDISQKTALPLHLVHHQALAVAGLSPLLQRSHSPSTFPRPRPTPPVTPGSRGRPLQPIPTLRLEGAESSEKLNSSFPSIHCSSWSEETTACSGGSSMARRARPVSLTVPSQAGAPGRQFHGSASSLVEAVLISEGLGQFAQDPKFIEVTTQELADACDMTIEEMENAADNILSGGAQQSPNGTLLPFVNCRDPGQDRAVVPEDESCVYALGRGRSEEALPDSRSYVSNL

[9] = biological target: Kappa-type opioid receptor (Homo sapiens) (UniProt P41145); experiment: Displacement of [3H] U69593 from human kappa opioid receptor at 10 uM measured after 60 mins by scintillation counter method relative to control
Sequence of Kappa-type opioid receptor (Homo sapiens) (P41145 whole entry): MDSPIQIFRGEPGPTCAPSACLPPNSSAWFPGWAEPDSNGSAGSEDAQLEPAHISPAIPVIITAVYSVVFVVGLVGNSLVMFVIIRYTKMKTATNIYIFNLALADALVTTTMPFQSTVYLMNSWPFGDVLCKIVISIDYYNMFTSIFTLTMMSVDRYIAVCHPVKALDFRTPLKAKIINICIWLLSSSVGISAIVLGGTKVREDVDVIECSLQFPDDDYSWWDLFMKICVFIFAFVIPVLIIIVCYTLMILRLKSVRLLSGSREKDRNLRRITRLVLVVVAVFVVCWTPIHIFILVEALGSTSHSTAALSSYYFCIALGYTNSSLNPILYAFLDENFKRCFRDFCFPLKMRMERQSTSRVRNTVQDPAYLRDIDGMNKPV

[10] = biological target: Substance-K receptor (Homo sapiens) (UniProt P21452); experiment: Displacement of [125I]NKA from human recombinant NK2 receptor at 10 uM measured after 60 mins by scintillation counter method relative to control
[11] = biological target: 5-hydroxytryptamine receptor 2C (Homo sapiens, UniProt P28335); experiment: Displacement of [3H] mesulergine from human recombinant 5-HT2C receptor measured after 120 mins by scintillation counter method
Sequence of 5-hydroxytryptamine receptor 2C (P28335 whole entry): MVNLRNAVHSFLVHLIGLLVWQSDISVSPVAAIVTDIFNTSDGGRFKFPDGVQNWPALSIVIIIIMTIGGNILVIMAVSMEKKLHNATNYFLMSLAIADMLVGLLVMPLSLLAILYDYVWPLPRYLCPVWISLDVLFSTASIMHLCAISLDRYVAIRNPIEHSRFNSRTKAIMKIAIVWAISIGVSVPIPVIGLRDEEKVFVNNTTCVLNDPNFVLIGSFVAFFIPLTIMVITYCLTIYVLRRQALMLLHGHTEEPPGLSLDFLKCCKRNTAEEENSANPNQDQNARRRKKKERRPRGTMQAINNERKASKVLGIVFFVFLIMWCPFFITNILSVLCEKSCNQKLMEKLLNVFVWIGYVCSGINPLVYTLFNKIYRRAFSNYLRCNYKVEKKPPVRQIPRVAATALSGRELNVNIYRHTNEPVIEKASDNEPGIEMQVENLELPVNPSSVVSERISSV

[12] = biological target: Nociceptin receptor (Homo sapiens) (UniProt P41146); experiment: Displacement of [3H]nociceptin from human recombinant ORL1 at 10 uM measured after 60 mins by scintillation counter method relative to control
[13] = biological target: Neuropeptide Y receptor type 1 (Homo sapiens) (UniProt P25929); experiment: Displacement of [125I] peptide YY from human neuropeptide Y1 receptor at 10 uM measured after 120 mins by scintillation counter method relative to control
[14] = biological target: Endothelin-1 receptor (Homo sapiens) (UniProt P25101); experiment: Displacement of [125I]endothelin-1 from human recombinant ETA receptor at 10 uM measured after 120 mins by scintillation counter method relative to control
[15] = biological target: 5-hydroxytryptamine receptor 1A (Homo sapiens) (UniProt P08908); experiment: Displacement of [3H]-OH-DPAT from human recombinant 5-HT1A receptor at 10 uM measured after 60 mins by scintillation counter method relative to control
Sequence of 5-hydroxytryptamine receptor 1A (Homo sapiens) (P08908 whole entry): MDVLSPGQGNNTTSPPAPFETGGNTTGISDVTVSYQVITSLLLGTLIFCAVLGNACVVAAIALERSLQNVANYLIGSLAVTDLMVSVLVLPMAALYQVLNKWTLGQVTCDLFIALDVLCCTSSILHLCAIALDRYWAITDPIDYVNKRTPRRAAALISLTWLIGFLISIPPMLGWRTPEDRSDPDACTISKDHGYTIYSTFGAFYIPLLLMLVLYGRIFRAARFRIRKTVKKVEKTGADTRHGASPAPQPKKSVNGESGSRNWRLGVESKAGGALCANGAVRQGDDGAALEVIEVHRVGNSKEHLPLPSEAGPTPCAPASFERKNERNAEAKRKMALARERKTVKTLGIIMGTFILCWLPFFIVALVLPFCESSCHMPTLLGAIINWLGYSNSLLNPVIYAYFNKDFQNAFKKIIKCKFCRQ

[16] = biological target: Melatonin receptor type 1A (Homo sapiens) (UniProt P48039); experiment: Displacement of [125I]2-iodomelatonin from human recombinant MT 1 receptor at 10 uM measured after 60 mins by scintillation counter method relative to control
Sequence of Melatonin receptor type 1A (Homo sapiens) (P48039 whole entry): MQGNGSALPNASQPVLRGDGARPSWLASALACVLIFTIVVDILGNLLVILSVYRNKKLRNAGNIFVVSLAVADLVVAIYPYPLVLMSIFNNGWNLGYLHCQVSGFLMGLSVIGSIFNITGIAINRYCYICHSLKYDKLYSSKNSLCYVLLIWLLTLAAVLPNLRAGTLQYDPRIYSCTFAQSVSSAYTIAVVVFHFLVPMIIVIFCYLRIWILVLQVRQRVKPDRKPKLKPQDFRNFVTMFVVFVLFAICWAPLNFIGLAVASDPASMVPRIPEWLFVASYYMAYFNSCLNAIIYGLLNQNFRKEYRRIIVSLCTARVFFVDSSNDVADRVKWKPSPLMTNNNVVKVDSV

[17] = biological target: Adrenergic receptor alpha-2 (Rattus norvegicus) (UniProt P22086+P19328+P22909); experiment: Displacement of [3H] RX 821002 from rat alpha2 adreno receptor at 10 uM measured after 60 mins by scintillation counter method relative to control; assay type: protein assay
[18] = species on record: Rattus norvegicus; experiment: Displacement of [125I]alpha dendrotoxin from rat potassium channel at 10 uM measured after 60 mins by scintillation counter method relative to control
[19] = biological target: T1, Substance-K receptor (Homo sapiens, UniProt P21452); experiment: Displacement of [125I]NKA from human recombinant NK2 receptor measured after 60 mins by scintillation counter method
T1 sequence (P21452 whole entry): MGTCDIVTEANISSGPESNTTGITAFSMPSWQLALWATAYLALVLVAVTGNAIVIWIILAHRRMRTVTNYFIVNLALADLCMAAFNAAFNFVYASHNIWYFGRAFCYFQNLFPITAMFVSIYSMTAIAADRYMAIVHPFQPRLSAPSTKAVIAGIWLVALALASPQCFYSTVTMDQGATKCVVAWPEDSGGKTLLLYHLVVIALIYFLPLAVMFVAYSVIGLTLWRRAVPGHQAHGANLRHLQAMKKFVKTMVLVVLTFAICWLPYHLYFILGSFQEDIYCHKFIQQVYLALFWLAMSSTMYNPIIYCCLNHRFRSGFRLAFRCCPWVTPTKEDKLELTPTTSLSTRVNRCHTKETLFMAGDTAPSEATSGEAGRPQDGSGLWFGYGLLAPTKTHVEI

[20] = biological target: GABA-A receptor; anion channel (Rattus norvegicus) (UniProt O09028+P15431+P18506+P18508+P19969+P20236+P23574+P23576+P28471+P28473+P30191+P62813+P63079+P63138+Q91ZM7+Q9ES14); experiment: Displacement of [3H]flunitrazepam from rat GABAA ion channel at 10 uM measured after 120 mins by scintillation counter method relative to control; assay type: protein-complex assay
[21] = biological target: Adenosine receptor A2a (Homo sapiens) (UniProt P29274); experiment: Displacement of [3H]CGS 21680 from human recombinant A2A receptor at 10 uM measured after 120 mins by scintillation counter method relative to control
[22] = biological target: Delta-type opioid receptor (Homo sapiens) (UniProt P41143); experiment: Displacement of [3H] DADLE from human delta opioid receptor at 10 uM measured after 60 mins by scintillation counter method relative to control
Sequence of Delta-type opioid receptor (Homo sapiens) (P41143 whole entry): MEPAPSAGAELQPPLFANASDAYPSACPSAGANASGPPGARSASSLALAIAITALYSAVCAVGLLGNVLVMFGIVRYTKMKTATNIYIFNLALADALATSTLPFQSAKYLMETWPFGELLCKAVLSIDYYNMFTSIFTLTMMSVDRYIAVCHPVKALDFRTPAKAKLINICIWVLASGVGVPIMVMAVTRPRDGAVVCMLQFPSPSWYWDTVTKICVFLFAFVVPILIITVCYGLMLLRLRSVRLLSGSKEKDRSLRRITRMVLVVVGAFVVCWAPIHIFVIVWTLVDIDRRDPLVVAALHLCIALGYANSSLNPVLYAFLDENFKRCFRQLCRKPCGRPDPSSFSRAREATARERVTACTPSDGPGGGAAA

[23] = biological target: Melanocortin receptor 4 (Homo sapiens) (UniProt P32245); experiment: Displacement of [125I]NDP-alpha-MSH from human recombinant MC 4 receptor at 10 uM measured after 120 mins by scintillation counter method relative to control
Sequence of Melanocortin receptor 4 (Homo sapiens) (P32245 whole entry): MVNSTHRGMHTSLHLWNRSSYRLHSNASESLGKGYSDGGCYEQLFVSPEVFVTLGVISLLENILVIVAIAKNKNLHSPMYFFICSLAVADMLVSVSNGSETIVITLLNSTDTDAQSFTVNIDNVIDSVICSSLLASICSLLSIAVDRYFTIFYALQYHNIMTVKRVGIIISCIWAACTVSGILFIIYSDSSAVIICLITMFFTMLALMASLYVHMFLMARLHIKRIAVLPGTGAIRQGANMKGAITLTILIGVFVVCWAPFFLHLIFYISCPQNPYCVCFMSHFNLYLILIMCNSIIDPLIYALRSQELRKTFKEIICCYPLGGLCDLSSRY

[24] = biological target: Histamine H2 receptor (Homo sapiens) (UniProt P25021); experiment: Displacement of [125I]APT from human recombinant H2 receptor at 10 uM measured after 120 mins by scintillation counter method relative to control
[25] = biological target: B2 bradykinin receptor (Homo sapiens) (UniProt P30411); experiment: Displacement of [3H]bradykinin from human recombinant B2 receptor at 10 uM measured after 60 mins by scintillation counter method relative to control
[26] = biological target: Neurotensin receptor type 1 (Homo sapiens) (UniProt P30989); experiment: Displacement of [125I]Tyr3-neurotensin from human recombinant neurotensin receptor type1 at 10 uM measured after 60 mins by scintillation counter method relative to control

Sequence of D(1A) dopamine receptor (Homo sapiens) (P21728 whole entry): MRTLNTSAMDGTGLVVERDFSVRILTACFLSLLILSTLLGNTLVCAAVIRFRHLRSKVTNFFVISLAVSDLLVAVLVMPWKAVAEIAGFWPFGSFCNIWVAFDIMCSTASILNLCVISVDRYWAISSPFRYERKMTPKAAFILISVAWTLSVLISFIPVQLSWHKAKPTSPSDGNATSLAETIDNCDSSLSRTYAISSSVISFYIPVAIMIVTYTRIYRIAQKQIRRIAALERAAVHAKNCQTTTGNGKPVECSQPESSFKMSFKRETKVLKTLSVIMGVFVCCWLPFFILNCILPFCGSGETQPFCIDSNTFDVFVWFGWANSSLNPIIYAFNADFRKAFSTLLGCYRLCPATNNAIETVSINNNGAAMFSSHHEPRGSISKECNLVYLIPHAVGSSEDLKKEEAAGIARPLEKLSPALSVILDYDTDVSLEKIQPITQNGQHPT

CC(C)CCO[C@@H]1[C@H]2OC(C)(C)O[C@H]2[C@H]2Cn3cc(nn3)COCCCCCCN(CCc3ccc4ccccc4c3)CC[C@H]1O2 gave an IC50 [1] of 120 nM, a Ki [1] of 100 nM and an inhibition [2] of 21.5%. It also gave an inhibition [3] of 87.1%, an inhibition [4] of 62.4% and an inhibition [5] of 96.5%. The inhibition [6] was 36.2%, the inhibition [7] was 81.6% and the inhibition at 2 h, 10 µM [8] was 90.5%. For the same molecule, the inhibition [9] was 77.9%, the inhibition [10] was 98.2% and the IC50 [11] was over 100 µM. For the same molecule, the Ki [11] was over 100 µM, the inhibition [12] was 9.9% and the Activity [13] was 3.3%. The Activity [14] was 7.1%, the inhibition [15] was 90.2% and the inhibition [16] was 29.2%. The inhibition [17] was 5%, the inhibition [18] was 13.4% and the IC50 [19] was 260 nM. The Ki [19] was 140 nM, the Activity [20] was 5.1% and the inhibition [21] was 14.6%. For the same molecule, the inhibition [22] was 83.4%, the inhibition [23] was 34% and the inhibition [24] was 27.4%. It also gave an Activity [25] of 9.4% and an Activity [26] of 15.7%.
